System: corticospinal neurons (CSNs/CSMNs)
Assay: Laser-capture microdissection and Illumina microarray gene expression in corticospinal neurons contralateral to stroke
Format: in vivo, rat
Procedure: In a separate group of animals (n=20), layer V pyramidal cells of the sensorimotor cortex were retrogradely labeled by injecting Alexa-Fluor-488-conjugated cholera toxin B subunit (CTB; 300 U/μl in sterile saline) into the cervical spinal cord. For this, animals were anesthetized with a combination of ketamine and Domitor (medetomidine) and a laminectomy was performed at the cervical level of the spinal cord (C2-C4). CTB was stereotaxically delivered into four sites lateral to the corticospinal tract. Injections (1.3 μl) were spaced 1 mm apart on the rostro-caudal axis, and were made 0.5 mm to the left and right of the midline. After allowing two weeks for transport of the tracer, we performed either sham surgery with no treatment (n=6) or stroke surgery combined with saline (n=3) or inosine (n=4) treatment as described above. Seven days later, animals were decapitated under transient gas anesthesia, brains were removed and rinsed in cold RPMI medium, and a tissue block containing the sensorimotor cortex was dissected and placed in OCT Tissue Tek Medium (Sakura Finetek USA Inc., CA) on dry ice within five minutes of death. Ten μm sections were cut onto precleaned Gold Seal RITE-ON glass slides (Gold Seal Prod-ucts, Portsmouth, N.H.), placed on dry ice, and rapidly stored at −80° C.
Slide-mounted sections were thawed and dehydrated in RNAse-free ethanol gradients and xylene. Retro-gradely labeled, fluorescent cortical pyramidal cells in the undamaged hemisphere were individually captured using the Arcturus VERITAS system. ≧500 cells were collected from each animal and stored in Arcturus extraction buffer at −80° C. Total RNA was extracted from cells using the Micro-to-Midi TotalRNA Purification System (Invitrogen, Carlsbad Calif.) and double-amplified using the TargetAmp 2-Round Aminoallyl-aRNA Amplification kit 1.0 (Epicentre, Madison, Wis.). Amplified RNA was checked for average fragment length using the Agilent RNA 6000 Nano LabChip kit (Agilent Technologies, Santa Clara, Calif.) and then biotinylated and hybridized (1 μg) on Illumina RatRef-12 Expression BeadChip arrays (Illumina, San Diego Calif.), querying the expression of >22,000 RefSeq-curated rat transcripts. Results were obtained from a total of 15 samples representing 6 untreated controls, 4 animals with stroke treated with saline and 5 animals with stroke treated with inosine. Slides were processed and scanned with Illumina BeadStation platform according to the manufacturer protocol.
Raw data was analyzed using Bioconductor packages (www.bioconductor.org, (Gentleman et al., 2004)). Low level quality-control analysis was performed using inter-array Pearson correlation and clustering based on variance. Two arrays (1 saline and 1 inosine-treated) were outliers and were excluded from the analysis. Data was normalized using quantile normalization, and analysis of differential expression was performed using a linear model fitting (LIMMA package, (Smyth, 2005). Differentially expressed genes were classified according to gene ontology using Bioconductor packages and online tools (DAVID, http://david.abcc.ncifcrf.gov/). Pathway analysis was carried out using Ingenuity Pathway Analysis (Ingenuity Systems, www.ingenuity.com).

`OC[C@H]1O[C@@H](n2cnc3c(O)ncnc32)[C@H](O)[C@@H]1O` [inosine] was tested, and the “Fold-Induction Stroke, ino vs. cntrl” value (A2m ILMN_70335) was 4.03, the “Signal Intensity Inosine” value (A2m ILMN_70335) was 1924 and the “Fold-Induction Stroke, ino vs. cntrl” value (ADRP ILMN_47969) was 4.12. The “Signal Intensity Inosine” value (ADRP ILMN_47969) was 3202, the “Fold-Induction Stroke, ino vs. cntrl” value (Adn ILMN_58846) was 4.53 and the “Signal Intensity Inosine” value (Adn ILMN_58846) was 2287. The “Fold-Induction Stroke, ino vs. cntrl” value (Aif1 ILMN_47707) was 2.67, the “Signal Intensity Inosine” value (Aif1 ILMN_47707) was 4301 and the “Fold-Induction Stroke, ino vs. cntrl” value (Arhgdib ILMN_66176) was 4.08. The “Signal Intensity Inosine” value (Arhgdib ILMN_66176) was 3057, the “Fold-Induction Stroke, ino vs. cntrl” value (Arpc1b ILMN_69642) was 2.61 and the “Signal Intensity Inosine” value (Arpc1b ILMN_69642) was 758. The “Fold-Induction Stroke, ino vs. cntrl” value (Asb2 ILMN_50991) was 3.27, the “Signal Intensity Inosine” value (Asb2 ILMN_50991) was 615 and the “Fold-Induction Stroke, ino vs. cntrl” value (Aurkc ILMN_69140) was 1.43. The “Signal Intensity Inosine” value (Aurkc ILMN_69140) was 1172, the “Fold-Induction Stroke, ino vs. cntrl” value (Bcl2a1 ILMN_62703) was 3.34 and the “Signal Intensity Inosine” value (Bcl2a1 ILMN_62703) was 613. For the same compound, the “Fold-Induction Stroke, ino vs. cntrl” value (Btf3 ILMN_62809) was 0.43, the “Signal Intensity Inosine” value (Btf3 ILMN_62809) was 787 and the “Fold-Induction Stroke, ino vs. cntrl” value (C1qb ILMN_61448) was 2.76. For the same compound, the “Signal Intensity Inosine” value (C1qb ILMN_61448) was 1832, the “Fold-Induction Stroke, ino vs. cntrl” value (C1qg ILMN_55502) was 3.66 and the “Signal Intensity Inosine” value (C1qg ILMN_55502) was 2499. For the same compound, the “Fold-Induction Stroke, ino vs. cntrl” value (C2 ILMN_63608) was 3.12, the “Signal Intensity Inosine” value (C2 ILMN_63608) was 4113 and the “Fold-Induction Stroke, ino vs. cntrl” value (C4-2 ILMN_59751) was 2.95. The “Signal Intensity Inosine” value (C4-2 ILMN_59751) was 2409, the “Fold-Induction Stroke, ino vs. cntrl” value (Card9 ILMN_62382) was 2.83 and the “Signal Intensity Inosine” value (Card9 ILMN_62382) was 865. For the same compound, the “Fold-Induction Stroke, ino vs. cntrl” value (Cd68 ILMN_60003) was 3.88, the “Signal Intensity Inosine” value (Cd68 ILMN_60003) was 2117 and the “Fold-Induction Stroke, ino vs. cntrl” value (Cd151 ILMN_62725) was 1.50. The “Signal Intensity Inosine” value (Cd151 ILMN_62725) was 1171, the “Fold-Induction Stroke, ino vs. cntrl” value (Cdk5rap2 ILMN_57761) was 1.68 and the “Signal Intensity Inosine” value (Cdk5rap2 ILMN_57761) was 1377. The “Fold-Induction Stroke, ino vs. cntrl” value (Chd4 ILMN_55276) was 1.26, the “Signal Intensity Inosine” value (Chd4 ILMN_55276) was 7413 and the “Fold-Induction Stroke, ino vs. cntrl” value (Cml1 ILMN_50957) was 1.08. For the same compound, the “Signal Intensity Inosine” value (Cml1 ILMN_50957) was 275, the “Fold-Induction Stroke, ino vs. cntrl” value (Comt ILMN_48330) was 1.09 and the “Signal Intensity Inosine” value (Comt ILMN_48330) was 400. For the same compound, the “Fold-Induction Stroke, ino vs. cntrl” value (Crabp2 ILMN_48069) was 2.62, the “Signal Intensity Inosine” value (Crabp2 ILMN_48069) was 1006 and the “Fold-Induction Stroke, ino vs. cntrl” value (Cyba ILMN_65212) was 4.04. For the same compound, the “Signal Intensity Inosine” value (Cyba ILMN_65212) was 2617, the “Fold-Induction Stroke, ino vs. cntrl” value (Dhrsx ILMN_56966) was 1.38 and the “Signal Intensity Inosine” value (Dhrsx ILMN_56966) was 8022. The “Fold-Induction Stroke, ino vs. cntrl” value (Dtx2 ILMN_65350) was 2.24, the “Signal Intensity Inosine” value (Dtx2 ILMN_65350) was 1792 and the “Fold-Induction Stroke, ino vs. cntrl” value (Esd ILMN_57701) was 0.44. For the same compound, the “Signal Intensity Inosine” value (Esd ILMN_57701) was 1416, the “Fold-Induction Stroke, ino vs. cntrl” value (Ftl1 ILMN_62100) was 2.24 and the “Signal Intensity Inosine” value (Ftl1 ILMN_62100) was 11718. For the same compound, the “Fold-Induction Stroke, ino vs. cntrl” value (Fxr2h ILMN_59638) was 1.64, the “Signal Intensity Inosine” value (Fxr2h ILMN_59638) was 638 and the “Fold-Induction Stroke, ino vs. cntrl” value (Gfap ILMN_68224) was 2.88. The “Signal Intensity Inosine” value (Gfap ILMN_68224) was 23099, the “Fold-induction CSMNs: Aif1” value (ILMN_47707, over and above inosine's effect of decreasing stroke-induced changes) was 2.33 fold and the “Fold-Induction Stroke, ino vs. cntrl, Uxs1” value (ILMN_47889) was 0.66. The “Signal Intensity, Uxs1” value (ILMN_47889, inosine after stroke) was 2868, the “Fold-Induction Stroke, ino vs. cntrl, LOC366193” value (ILMN_48004) was 0.67 and the “Signal Intensity, LOC366193” value (ILMN_48004, inosine after stroke) was 2396. For the same compound, the “Fold-induction CSMNs: Crabp2” value (ILMN_48069, over and above inosine's effect of decreasing stroke-induced changes) was 2.12 fold, the “Fold-induction CSMNs: Ifitm3” value (ILMN_48088, over and above inosine's effect of decreasing stroke-induced changes) was 2.74 fold and the “Fold-Induction Stroke, ino vs. cntrl, Ap3s1” value (ILMN_48320) was 0.55. For the same compound, the “Signal Intensity, Ap3s1” value (ILMN_48320, inosine after stroke) was 285, the “Fold-Induction Stroke, ino vs. cntrl, LOC499423” value (ILMN_48323) was 0.53 and the “Signal Intensity, LOC499423” value (ILMN_48323, inosine after stroke) was 1043. The “Fold-Induction Stroke, ino vs. cntrl, Wee1” value (ILMN_48447) was 0.83, the “Signal Intensity, Wee1” value (ILMN_48447, inosine after stroke) was 367 and the “Fold-Induction Stroke, ino vs. cntrl, Sfrs10” value (ILMN_48507) was 0.72.

Source: US8912144B2, “Method for treating stroke via administration of NEP1-40 and inosine” (Children's Medical Center Corporation, priority 2003, dated 2014)
